Like-named read-outs stand apart in the source and are kept apart here.
Legend:
[1] = system: U87-MG glioma cells; assay: Cell viability, OLIG2-negative U87-MG; type: cell-based; conditions: does not express OLIG2
Protocol: (§1) Cell proliferation was determined by a CellTiter 96® Non-Radioactive Cell Proliferation Assay (Promega) kit. Absorbance at 490 nm was measured on a Biotek PowerWave (Biotek, USA) plate scanner to obtain raw data. Average absorbance from triplicate wells were plotted against concentration using GraphPad Prism software v.7.0 (GraphPad software). At the indicated time points, cells were stained using FITC-conjugated Annexin V and Annexin V binding buffer (BD Pharmingen™) according to the manufacturer’s instructions. Annexin V or propidium iodide (PI)-positive cells were analyzed using a Fortessa 5 Flow Cytometer (Becton Dickinson) and data was analyzed using FlowJo® software (Tree Star).

[2] = system: Med-813 MB cell line; assay: Cell viability, 7 days treatment, Med-813; type: cell-based; conditions: Homo sapiens, 168 h; Med-813, 7 days
Protocol: as §1

[3] = system: HEK293 cells; assay: Cell viability, OLIG2-negative HEK293; type: cell-based, human; conditions: HEK293, does not express OLIG2
Protocol: as §1

[4] = In vivo pharmacokinetic studies of CT-179 in mice, plasma and brain; parameters: species or system mice (C57Bl/J6); conditions: mouse; for bioavailability: in vivo, po, PO 20 mg/kg vs IV 1 mg/kg
Protocol: The in vivo pharmacokinetic studies (EXT-240 and EXT-241) were performed under contract by Biodura Inc.

[5] = system: Daoy cells; assay: Apoptosis and cell cycle analysis in Daoy cells; type: cell-based, human; conditions: 1 μM
Protocol: as §1
Cell cycle analysis was performed as descried previously. Cells were fixed with 70% ice-cold ethanol and subsequently stained with PI and analyzed using a Fortessa 5 Flow Cytometer (Becton Dickinson) and data was analyzed using FlowJo® software (Tree Star).

[6] = biological target: KIT (Homo sapiens, UniProt P10721); assay: Kinase profiling (KINOMEscan / SelectScreen), KIT; type: biochemical; conditions: ATP equal to Km
Chain of KIT (P10721 26-976): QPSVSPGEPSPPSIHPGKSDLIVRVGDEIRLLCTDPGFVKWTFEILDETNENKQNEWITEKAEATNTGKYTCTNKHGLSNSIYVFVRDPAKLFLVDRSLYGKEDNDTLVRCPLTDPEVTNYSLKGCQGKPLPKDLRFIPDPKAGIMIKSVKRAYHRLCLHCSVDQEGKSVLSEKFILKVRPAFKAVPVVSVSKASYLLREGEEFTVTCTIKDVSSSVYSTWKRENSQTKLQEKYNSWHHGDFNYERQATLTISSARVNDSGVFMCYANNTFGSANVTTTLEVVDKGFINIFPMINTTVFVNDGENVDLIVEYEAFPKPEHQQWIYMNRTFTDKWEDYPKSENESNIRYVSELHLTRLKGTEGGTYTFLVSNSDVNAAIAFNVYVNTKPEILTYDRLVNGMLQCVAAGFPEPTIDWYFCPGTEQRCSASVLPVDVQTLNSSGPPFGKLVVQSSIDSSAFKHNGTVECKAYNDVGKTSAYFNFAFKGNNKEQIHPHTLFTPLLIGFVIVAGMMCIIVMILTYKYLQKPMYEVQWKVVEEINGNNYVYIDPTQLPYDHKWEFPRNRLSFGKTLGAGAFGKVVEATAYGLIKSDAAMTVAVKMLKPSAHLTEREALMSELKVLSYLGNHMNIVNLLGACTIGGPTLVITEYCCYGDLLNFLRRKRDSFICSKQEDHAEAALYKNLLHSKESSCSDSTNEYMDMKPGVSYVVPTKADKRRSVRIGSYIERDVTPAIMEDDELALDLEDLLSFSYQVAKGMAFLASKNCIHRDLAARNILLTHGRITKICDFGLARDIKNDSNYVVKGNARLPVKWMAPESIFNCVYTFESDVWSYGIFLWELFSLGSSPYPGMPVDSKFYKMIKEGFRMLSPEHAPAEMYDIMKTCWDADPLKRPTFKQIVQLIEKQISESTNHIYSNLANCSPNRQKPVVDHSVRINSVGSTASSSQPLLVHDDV
Protocol: Effect of CT-179 on protein kinase activity was evaluated using the Thermofisher Scientific SelectScreen Kinase Profiling Service. Over 400 human protein kinases were tested in the presence of 1 μM final concentration of CT-179 at an ATP concentration equal to the known ATP Km for each kinase. The experiment was done by Curtana Pharmaceuticals. Data is presented as percentage of inhibition of enzyme activity. Software CORAL was used to make the kinome tree, which is available from: http://phanstiel-lab.med.unc.edu/CORAL/.

[7] = G-Smo GEM model of SHH-MB: tolerability, pharmacodynamics, survival; type: in vivo, mice; conditions: mouse, in vivo, ip, read-out: maximum tolerated dose (MTD)
Protocol: (§2) Medulloblastoma-bearing mice were maintained at UNC in accordance with UNC IACUC protocols 19–098 and 21–011 and at QIMR under protocol 1572 and 2324. Specimens were examined by a neuropathologist to verify tumor type and grade.
(§3) Post-natal P10 G-Smo mice were injected IP with CT-179 (80 mg/kg), or POx-Palbo (25 mg/kg, every day from P10 to P13), or combination (CT-179 + POx-Palbo, EOD from P14) or saline control solution and tumors were harvested after 6 or 24 hours. EdU (40 mg/kg) was administered IP 30 minutes before harvest. Tumors were dissociated using the Worthington Papain Dissociation System Kit, then fixed for 15 minutes on ice and washed with FACS Wash buffer (2% FBS in PBS). Fixed cells were stained with fluorophore markers for DNA (FX Cycle stain, Thermo Fisher Scientific), EdU (Click-it Edu Kit, Thermo Fisher Scientific), and phospho-RB content (phospho-RB^Ser807/811, Cell Signalling Technology) as previously described. Stained cells were resuspended in sheath fluid and ran on LSR II flow cytometer for 50000 events at the UNC Flow Cytometry core, using appropriate compensation controls and analyzed using FlowJo® software (Tree Star).
(§4) Brains including tumors from G-Smo mice were harvested, fixed in 4% paraformaldehyde for 48 hours, and embedded in paraffin at the UNC Centre for Gastrointestinal Biology and Disease Histology core. Sections were deparaffinised, and antigen retrieval was performed using a low-pH citric acid-based buffer. Staining was performed and stained slides were digitally scanned using the Leica Biosystems Aperio ImageScope software (12.3.3) by the UNC Translational Pathology Laboratory, as in prior studies. The primary antibodies used were anti-NeuN (Cell Signalling Technology) anti-OLIG2 (Cell Marque) and anti-SOX10 (Cell Signalling Technology) and anti-cleaved caspase-3 (Biocare).
(§5) In vitro experiments - all data represent the means ± standard deviation (SD) or standard error of the mean (SEM) as indicated. Where appropriate, two-tailed Student’s t-test or ANOVA were used to determine the probability of difference (*p < 0.05, ** p < 0.01, ***p < 0.001). In vivo experiments - the log-rank (Mantel-Cox) test was used to determine the survival significance of survival differences between treatment groups (*p < 0.05, ** p < 0.01, ***p < 0.001). Kaplan-Meier survival curves were generated using GraphPad Prism v. 7.0 software (GraphPad software).

[8] = system: SHH-MB in Gfap-Cre/SmoM2 (G-Smo) mice; assay: as above; type: in vivo
Protocol: as §2, §3, §4, §5

[9] = 80 mg/kg at P10, P12, P14 and P16, 24 hours after last dose

Cc1cc(NCCCN(C)C)nc(NC(=O)Nc2ccc(Cl)c(Cl)c2)n1 [CT-179]
growth suppression [1]: not suppressed | IC50 [2]: 965 nM | growth suppression [3]: not suppressed | Kp at 4 h ([4]; brain, 4 hours after single PO dose, 20 mg/kg, read-out: brain to plasma (B/P) ratio, average): 6.72 | Kp ([4]; brain, second study, PO doses of 1 and 5 mg/Kg once daily, read-out: estimated brain to plasma ratio): > 10 | bioavailability ([4]; 20 mg/kg, read-out: bioavailability, mean): 75% | bioavailability ([4]; 20 mg/kg, read-out: bioavailability, range estimated): 58 to 91% | apoptosis (cleaved CASPASE-3, Annexin V) [5]: increased apoptosis | cell cycle effect ([5]; 24 hours, single therapy): G2/M phase arrest | inhibition at 1 µM [6]: 66% | MTD ([7]; EOD): 80 mg/kg | MTD ([7]; every three days): 100 mg/kg | p-OLIG2 in tumors, western blot [8, 9]: decreased p-OLIG2 | p-RB in tumors, western blot [8, 9]: reduced p-RB | EFS versus control ([8]; IP 80 mg/kg EOD, 80 mg/kg every three days, or 100 mg/kg every three days, from P10): significantly improved EFS | BLI signal in G-Smo Gli-luc mice ([8]; administered every three days): dose-dependent decrease in BLI signal
